# Measured values reported in patent US6506876B1, “LTA4 hydrolase inhibitor pharmaceutical compositions and methods of use” (G.D. Searle & Co., priority 1994, dated 2003).
# Read-outs that look alike come from different tables or passages of the source.
# Legend:
# [1] = biological target: T1, recombinant human LTA4 hydrolase (rhLTA4H) (Homo sapiens, UniProt P09960); assay: Recombinant human LTA4 hydrolase assay for LTA4 hydrolase inhibitor activity; conditions: for IC50: Recombinant Human LTA4 Hydrolase Assay IC50 LTA4H, recombinant hLTA4H
# T1 sequence (P09960 1-611): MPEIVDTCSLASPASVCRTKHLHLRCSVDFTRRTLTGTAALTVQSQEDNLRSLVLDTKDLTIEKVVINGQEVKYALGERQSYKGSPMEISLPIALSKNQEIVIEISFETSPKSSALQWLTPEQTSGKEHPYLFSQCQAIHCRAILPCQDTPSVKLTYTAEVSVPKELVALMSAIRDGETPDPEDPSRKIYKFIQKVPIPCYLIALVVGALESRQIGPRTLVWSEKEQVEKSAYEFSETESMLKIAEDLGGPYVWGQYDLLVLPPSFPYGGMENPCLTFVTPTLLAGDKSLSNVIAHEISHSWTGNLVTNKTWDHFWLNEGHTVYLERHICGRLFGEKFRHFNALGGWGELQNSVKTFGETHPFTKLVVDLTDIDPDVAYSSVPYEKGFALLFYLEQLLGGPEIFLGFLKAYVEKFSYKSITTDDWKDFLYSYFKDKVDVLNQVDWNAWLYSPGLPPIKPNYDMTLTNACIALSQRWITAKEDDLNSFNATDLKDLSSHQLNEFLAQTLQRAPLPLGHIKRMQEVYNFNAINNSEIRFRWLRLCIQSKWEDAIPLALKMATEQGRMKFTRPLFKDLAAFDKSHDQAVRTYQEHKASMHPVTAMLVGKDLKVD
# Description: One or more predetermined amounts of a compound of the invention were incubated in assay buffer (0.1 M potassium phosphate, 5 mg/ml fatty acid free BSA, 10% DMSO, pH 7.4) for 10 minutes at room temperature with 250 ng of recombinant hLTA4H to allow binding, if any, between the enzyme and inhibitor. The stock enzyme solution was 1 mg/ml LTA4 hydrolase, 50 mM Tris, pH 8.0, 150 mM NaCl, 2.5 mM beta-mercaptoethanol, 50% glycerol. […] Each reaction was carried out at room temperature for 10 minutes. The reaction was stopped by diluting 25 μl of the reaction mixture with 500 μl of the assay buffer without DMSO. LTB4 was quantified in the diluted sample by a commercially available enzyme-linked immunoassay [Caymen Chemical Co., Ann Arbor, Mich.] using the method recommended in the manufacturer's instructions and compared to the amount of LTB4 produced in a negative control (i.e., essentially identical conditions except without addition of an inhibitor compound). The IC50 was routinely calculated from the data produced.
# [2] = system: LTB4 production in mouse blood (LTA4 hydrolase); assay: Ex vivo LTB4 production by calcium ionophore stimulated mouse blood after oral dosing; assay type: in vivo
# Description: Ex Vivo LTB4 and Thromboxane Production by Calcium Ionophore Stimulated Mouse Blood for LTA4 Hydrolase Inhibitor Activity
# Leukotriene A4 hydrolase inhibitor compounds of the present invention were diluted to a predetermined concentration in phosphate buffered saline containing 2% DMSO and 1% Tween 80. The compounds were administered by oral gavage to adult male outbred mice weighing approximately 20-30 gm at a dose of 10 mg/kg body weight. (Compounds given at a dose of 50 mg/kg body weight are designtated in following Table by the symbol, *.) Sixty (60) minutes after administration of an LTA4 inhibitor compound of the invention, blood was collected (into heparin-containing tubes) from the retroorbital sinus. […] The mixture was incubated for 10 minutes at 37° C. in a humidified incubator. The reaction was terminated by centrifugation (833 g, 10 minutes at 4° C.). Supernatants were analyzed for LTB4 and thromboxane by commercially available enzyme-linked immunoassays (Caymen Chemical Co., Ann Arbor, Mich.] in accordance with the manufacturer's instructions. The percent inhibition was determined by comparison to animals treated identically except that the solution admininstered by oral gavage was devoid of inhibitor compound.
# [3] = mouse, oral gavage, 1 hour after administration of 10 mg/kg; read-out: Murine Ex Vivo LTB4 Inhibition % I LTB4
# [4] = Mus musculus, po, 1 h, read-out: Murine Ex Vivo LTB4 Inhibition % I LTB4
# [5] = Mus musculus, po, 1 h; read-out: Murine Ex Vivo LTB4 Inhibition % I LTB4
SMILES,IC50 [1] [nM],"inhibition in vivo at 10 mg/kg [2, 3] [%]",further results
c1ccc(COc2ccc(OCCn3cnc4cnccc43)cc2)cc1 [347 B],1900,43,–
c1ccc(Oc2ccc(OCCn3cccc4ncnc3-4)cc2)cc1 [348 C],290,77,–
c1ccc(Oc2ccc(OCCCn3ccc4ncnc-4c3)cc2)cc1 [351 C],43,42,–
Fc1ccc(Oc2ccc(OCCn3cnc4ncccc43)cc2)cc1 [354 B],280,32,–
c1ccc(Oc2ccc(OCCN3CCCC3)cc2)cc1 [Example 44],–,–,"inhibition in vivo at 10 mg/kg [2, 4]: 25%"
"c1nc(Cc2ccc(OCCN3CCCC3)cc2)cs1 [Example 49, 4-[[4-[2-(1-pyrrolidinyl)ethoxy]phenyl]methyl]thiazole]",–,–,"inhibition in vivo at 10 mg/kg [2, 4]: 46%"
"FC(F)(c1ccccc1)c1ccc(OCCN2CCCC2)cc1 [Example 67, 1-[2-[4-[(difluoro)phenylmethyl]phenoxy]ethyl]pyrrolidine]",–,–,"Murine Ex Vivo LTB4 Inhibition % I LTB4 ([2]; mouse, oral gavage, 1 hour after administration of 10 mg/kg): 0%"
c1ccc(Cc2ccc(OCCN3CCCC3)nc2)cc1 [Example 112],–,–,"inhibition in vivo at 50 mg/kg [2, 4]: 82%"
c1csc(Cc2ccc(OCCN3CCCC3)cc2)n1 [Example 121],–,–,"inhibition in vivo at 10 mg/kg [2, 4]: 48%"
c1ncc(Cc2ccc(OCCN3CCCC3)cc2)s1 [Example 122],–,–,"inhibition in vivo at 10 mg/kg [2, 4]: 57%"
c1cncc(Cc2ccc(OCCN3CCCC3)cc2)c1 [Example 125],–,–,"inhibition in vivo at 10 mg/kg [2, 4]: 46%"
c1cc(Cc2ccc(OCCN3CCCC3)cc2)cs1 [Example 134],–,–,"inhibition in vivo at 10 mg/kg [2, 4]: 63%"
COC(=O)CC1CCN(CCOc2ccc(Cc3ccccc3)cc2)C1 (stereo not shown) [Example 275],–,75,–
COC(=O)C1CCN(CCOc2ccc(Cc3ccccc3)cc2)C1 (stereo not shown) [Example 276],–,75,–
COC(=O)CC1CC2CC1CN2CCOc1ccc(Cc2ccccc2)cc1 (stereo not shown) [Example 304],–,–,"inhibition in vivo at 10 mg/kg [2, 4]: 80%"
CN(CCCOc1ccc(Cc2ccc(F)cc2)cc1)CCC(=O)O [Example 336],–,–,"inhibition in vivo at 10 mg/kg [2, 5]: 99%"
c1ccc(Cc2ccc(OCCN3CCCCC3)cc2)cc1 [Example 401],–,–,"inhibition in vivo at 10 mg/kg [2, 4]: 23%"
CC1CCCC(C)N1CCOc1ccc(Cc2ccccc2)cc1 (stereo not shown) [Example 402],–,–,"inhibition in vivo at 10 mg/kg [2, 4]: 58%"
C#CC(CC(=O)OCC)NCCOc1ccc(Cc2ccccc2)cc1 (stereo not shown) [Example 408],–,–,"inhibition at 100 µM ([1]; read-out: Recombinant Human LTA4 Hydrolase Assay, % at 100 μM): 76%"
CN(CCCOc1ccc(Cc2ccccc2)cc1)CCC(=O)OCc1ccccc1 [Example 411],2400,–,–
CCOC(=O)CCN(C)CCCOc1ccc(Cc2ccccc2)cc1 [Example 412],–,72,–
CNC(=O)C1CCN(CCOc2ccc(Cc3ccccc3)cc2)CC1 [Example 420],–,–,"inhibition in vivo at 10 mg/kg [2, 5]: 93%"
NC(=O)CC1CCN(CCOc2ccc(Cc3ccccc3)cc2)C1 (stereo not shown) [Example 426],–,40,–
O=C(O)C1CCN(CCOc2ccc(Cc3cccc(F)c3)cc2)CC1 [Example 436],720,–,–
O=C(O)C1CCN(CCOc2ccc(Cc3ccc(F)cc3)cc2)CC1 [Example 438],3200,–,–
O=C(O)C1CCN(CCOc2ccc(Cc3ccsc3)cc2)CC1 [Example 439],18000,–,–
N=C(N)C1CCN(CCOc2ccc(Cc3ccccc3)cc2)CC1 [Example 449],140,–,–
c1ccc(Cc2ccc(OCCN3CCC(c4nnn[nH]4)CC3)cc2)cc1 [Example 450],–,–,"inhibition in vivo at 10 mg/kg [2, 4]: 91%"

# Second part, led by results:
IC50 [1] [nM],SMILES,"inhibition in vivo at 10 mg/kg [2, 3] [%]",further results
120,C[C@@H]1C[C@H](C(N)=O)CCN1CCOc1ccc(Cc2ccccc2)cc1 (relative stereo) [Example 297],63,–
300,C[C@H]1C[C@@H](O)CCN1CCOc1ccc(Cc2ccccc2)cc1 (relative stereo) [Example 465],38,–
60,CC(=O)N[C@@H]1CCN(CCOc2ccc(Cc3ccccc3)cc2)[C@@H](C)C1 (relative stereo) [Example 467],71,–
140,c1ccc(Cc2ccc(OCCCn3cnc4ncccc43)cc2)cc1 [341 B],29,–
1900,c1ccc(COc2ccc(OCCn3cnc4ncccc43)cc2)cc1 [346 B],23,–
1800,c1ccc(COc2ccc(OCCn3cnc4ccncc43)cc2)cc1 [347 A],34,–
5,c1ccc(COc2ccc(OCCn3ccc4ncnc-4c3)cc2)cc1 [347 C],52,–
4600,c1ccc(Oc2ccc(OCCn3cnc4cccnc43)cc2)cc1 [348 A],42,–
440,c1ccc(Oc2ccc(OCCn3cnc4ncccc43)cc2)cc1 [348 B],22,–
480,c1ccc(Oc2ccc(OCCn3cnc4ccncc43)cc2)cc1 [349 A],78.5,–
300,c1ccc(Oc2ccc(OCCn3cnc4cnccc43)cc2)cc1 [349 B],48,–
13,c1ccc(Oc2ccc(OCCn3ccc4ncnc-4c3)cc2)cc1 [349 C],52,–
550,c1ccc(Oc2ccc(OCCCn3cnc4ncccc43)cc2)cc1 [350 B],38,–
620,c1ccc(Oc2ccc(OCCCn3cccc4ncnc3-4)cc2)cc1 [350 C],35,–
480,Fc1ccc(Oc2ccc(OCCn3cccc4ncnc3-4)cc2)cc1 [354 C],6,–
1370,Fc1ccc(Oc2ccc(OCCn3cnc4ccncc43)cc2)cc1 [355 A],44,–

IC50 [1] [nM],SMILES,"inhibition in vivo at 10 mg/kg [2, 3] [%]",further results
870,Fc1ccc(Oc2ccc(OCCn3cnc4cnccc43)cc2)cc1 [355 B],37,–
28,Fc1ccc(Oc2ccc(OCCn3ccc4ncnc-4c3)cc2)cc1 [355 C],48,–
12000,C=CCN(CCCOc1ccc(Cc2ccccc2)cc1)CCC(=O)OCc1ccccc1 [Example 409],–,–
33000,"C=CCN(CCCCOc1ccc(Cc2ccccc2)cc1)CCC(=O)OCC [Example 410, Ethyl [[4-[4-(Phenylmethyl)phenoxyl]-butyl](2-propenyl)amino]propanoate]",–,–
11000,CCOC(=O)CCN(CCCOc1ccc(Cc2ccccc2)cc1)Cc1cccnc1 [Example 414],–,–
5000,CCOC(=O)CCN(C)CCCCOc1ccc(Cc2ccccc2)cc1 [Example 415],–,–
4300,CC(CN(C)CCCOc1ccc(Cc2ccccc2)cc1)C(=O)OCc1ccccc1 (stereo not shown) [Example 417],–,–
12000,CN(CCCOc1ccc(Cc2ccccc2)cc1)CC(C)(C)C(=O)OCc1ccccc1 [Example 418],–,–
410,NC(=O)CCNC(=O)C1CCN(CCOc2ccc(Cc3ccccc3)cc2)CC1 [Example 421],–,–
330,NC(=O)CCNCCCOc1ccc(Cc2ccccc2)cc1 [Example 423],–,–
30,COC(=O)C1CC2CC1CN2CCOc1ccc(Cc2ccccc2)cc1 (stereo not shown) [Example 440],–,–
300,CC1CC(C#N)CCN1CCOc1ccc(Cc2ccccc2)cc1 (stereo not shown) [Example 444],–,–
330,CC1CC(C(N)=NO)CCN1CCOc1ccc(Cc2ccccc2)cc1 (stereo not shown) [Example 445],–,–
560,NC(=S)N1CCN(CCOc2ccc(Cc3ccccc3)cc2)CC1 [Example 458],–,–
84000,CS(=O)(=O)N1CCN(CCOc2ccc(Cc3ccccc3)cc2)CC1 [Example 460],–,–
29,COC(=O)C1CC2CC1CN(CCOc1ccc(Cc3ccccc3)cc1)C2 (stereo not shown) [Example 504],–,–
